From patent US11617762B2, “Compositions comprising sulfated polysaccharides” (SEANERGY DERMATOLOGY LTD., priority 2016, dated 2023)

Legend:
[1] = tested on: TNFα secretion in RAW 264.7 cells; assay: LPS-induced TNFα secretion by RAW 264.7 macrophage cells (ELISA); format: cell-based; settings: LPS 1 μg/ml, 24 hr
Method: The potential for synergistic interaction was tested by assaying inflammatory mediator secretion by a macrophage cell line (RAW 264.7), following stimulation with lipopolysaccharide (LPS). […] RAW 264.7 monocyte macrophage cells (approximately 4×10^5/ml) were seeded in 24 well plates containing 800 microliters/well of complete growth medium (DMEM containing 2 mM glutamine, 100 U/ml penicillin and 100 μg/ml streptomycin and 10% fetal bovine serum). The cells were then incubated at 37 degrees Celsius with 5% carbon dioxide for 24 h. At the end of this period, growth medium supplemented with 1 μg/ml lipopolysaccharide (LPS) was added to the cells, together with the test substances (SPS, anti-inflammatory drugs and their combinations) and various controls), and the cells were then incubated for a further 24 hr. period under the same conditions as before. Following this incubation period, the conditioned medium was aspirated from the various test and control wells and centrifuged at 14,000 g for 5 minutes to remove particulate matter. The clear supernatants were then stored at −70 degrees Celsius prior to assaying the inflammatory mediatory content therein. The cytokine/mediator content in the thawed supernatants was assayed using standard ELISA kits for TNFα, IL-6 and PGE2 (BioLegend Inc., San Diego, Calif., USA). Method: Raw 264.7 macrophage cells were incubated (as described above) in the absence or presence of LPS and treated without or with the SPS (Porphyridium C. SPS), Dexamethasone or a combination thereof for 24 hr. Then, TNFα levels in the spent medium were quantified by ELISA, as explained above. DMSO were used as vehicle. Methods: Hydrocortisone, Mometasone furoate and Porphyridium SPS were tested alone and in combination, according to the methods described hereinabove, in order to assess the effect of these various treatments on TNFα secretion in RAW 264.7 cells. Methods: Dexamethasone alone, SPS obtained from brown algae and green algae alone, and combinations of dexamethasone with the SPS, were tested, as described hereinabove, in order to assess the effect of these various treatments on TNFα secretion in RAW 264.7 cells.

[2] = tested on: PGE2 secretion in RAW 264.7 cells; assay: LPS-induced prostaglandin E2 secretion by RAW 264.7 macrophage cells (ELISA); format: cell-based
Method: The potential for synergistic interaction was tested by assaying inflammatory mediator secretion by a macrophage cell line (RAW 264.7), following stimulation with lipopolysaccharide (LPS). The inflammatory mediators assayed were: tumor necrosis factor—alpha (TNF-alpha), interleukin 6 (IL-6) and prostaglandin E2 (PGE2). RAW 264.7 monocyte macrophage cells (approximately 4×10^5/ml) were seeded in 24 well plates containing 800 microliters/well of complete growth medium (DMEM containing 2 mM glutamine, 100 U/ml penicillin and 100 μg/ml streptomycin and 10% fetal bovine serum). The cells were then incubated at 37 degrees Celsius with 5% carbon dioxide for 24 h. At the end of this period, growth medium supplemented with 1 μg/ml lipopolysaccharide (LPS) was added to the cells, together with the test substances (SPS, anti-inflammatory drugs and their combinations) and various controls), and the cells were then incubated for a further 24 hr. period under the same conditions as before. Following this incubation period, the conditioned medium was aspirated from the various test and control wells and centrifuged at 14,000 g for 5 minutes to remove particulate matter. The clear supernatants were then stored at −70 degrees Celsius prior to assaying the inflammatory mediatory content therein. The cytokine/mediator content in the thawed supernatants was assayed using standard ELISA kits for TNFα, IL-6 and PGE2 (BioLegend Inc., San Diego, Calif., USA). […] SPS was also investigated on Prostaglandin E2 (PGE2) secretion, as an independent inflammation marker derived from arachidonic acid metabolism. Raw 264.7 macrophage cells were incubated (as described above) in the absence or presence of LPS and treated without or with the SPS (Porphyridium C. SPS), Indomethacin or a combination thereof for 24 hr. Then, PGE2 levels in the supernatant medium were quantified by ELISA, as explained above. DMSO were used as vehicle. […]

Structure (SMILES): C[C@@H]1C[C@H]2[C@@H]3CCC4=CC(=O)C=C[C@]4(C)[C@@]3(F)[C@@H](O)C[C@]2(C)[C@@]1(O)C(=O)CO [Dexamethasone]
- inhibition at 1 µM ([1]; Mus musculus, RAW264.7, Table 2, TNFα, 1.0 μM alone): 34%
- TNFα concentration (ng/ml) ([1]; Table 2, 1.0 μM alone): 7,400 ng/ml

Structure (SMILES): C[C@]12CCC(=O)C=C1CC[C@@H]1[C@@H]2[C@@H](O)C[C@@]2(C)[C@H]1CC[C@]2(O)C(=O)CO [Hydrocortisone]
- inhibition at 5 µM ([1]; Mus musculus, RAW264.7, Table 1, TNFα, 5.0 μM alone, read-out: % inhibition (mean; n = 3)): 27%
- TNFα concentration (ng/ml) ([1]; Table 1, 5.0 μM alone): 8,200 ng/ml

Structure (SMILES): O=C(O)Cc1ccccc1Nc1c(Cl)cccc1Cl [Diclofenac]
- inhibition at 0.1 µM ([2]; Mus musculus, RAW264.7, Table 3, PGE2, 0.1 μM alone, LPS 1 μg/ml, 24 hr): 7.5%
- PGE2 ([2]; Table 3, 0.1 μM alone, LPS 1 μg/ml, 24 hr): 3,700

Structure (SMILES): COc1ccc2c(c1)c(CC(=O)O)c(C)n2C(=O)c1ccc(Cl)cc1 [indomethacin, Indomethacin]
- effect on LPS-stimulated Prostaglandin E2 secretion (in words) ([2]; Example 3, FIG. 3, used alone): inhibited LPS-stimulated Prostaglandin E2 secretion to a certain degree, although this effect was not statistically significant

Structure (SMILES): C[C@@H]1C[C@H]2[C@@H]3CCC4=CC(=O)C=C[C@]4(C)[C@@]3(Cl)[C@@H](O)C[C@]2(C)[C@@]1(OC(=O)c1ccco1)C(=O)CCl [Mometasone furoate]
- inhibition at 0.5 µM ([1]; Mus musculus, RAW264.7, Table 1, TNFα, 0.5 μM alone, read-out: % inhibition (mean; n = 3)): 32%
- TNFα concentration (ng/ml) ([1]; Table 1, 0.5 μM alone): 7,600 ng/ml
